Measured values from PubChem BioAssay (NCI).
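Interpolation was linear, between the two tested concentrations surrounding the appropriate level; five concentrations were tested over 48 hours in 96-well plates. GI50 = concentration required for 50% inhibition of growth. At the TGI there is no net growth.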

How the values were obtained:
Assay in all cases: NCI-60 cell line screen, 48 h
NCI-H460 lung = system: NCI-H460 lung
COLO 205 colon = system: COLO 205 colon
RPMI-8226 leukemia = system: RPMI-8226 leukemia
SK-OV-3 ovarian = system: SK-OV-3 ovarian
OVCAR-5 ovarian = system: OVCAR-5 ovarian
SNB-75 CNS = system: SNB-75 CNS
SK-MEL-28 melanoma = system: SK-MEL-28 melanoma
SK-MEL-5 melanoma = system: SK-MEL-5 melanoma
TK-10 renal = system: TK-10 renal
SW-620 colon = system: SW-620 colon

Row | Compound | TGI (NCI-H460 lung) [µM] | TGI (COLO 205 colon) [µM] | TGI (RPMI-8226 leukemia) [µM] | TGI (SK-OV-3 ovarian) [µM] | TGI (OVCAR-5 ovarian) [µM] | TGI (SNB-75 CNS) [µM] | TGI (SK-MEL-28 melanoma) [µM] | TGI (SK-MEL-5 melanoma) [µM] | TGI (TK-10 renal) [µM] | TGI (SW-620 colon) [µM] | GI50 (RPMI-8226 leukemia) [µM] | GI50 (SK-OV-3 ovarian) [µM] | GI50 (OVCAR-5 ovarian) [µM] | GI50 (SNB-75 CNS) [µM] | GI50 (TK-10 renal) [µM] | GI50 (SK-MEL-28 melanoma) [µM]
1 | COC1CCC(CO)OO1 (stereo not given) | > 100 | > 100 | 93.1 | > 100 | > 100 | > 100 | > 100 | – | – | – | – | – | – | – | – | –
2 | CN1Cc2ccccc2C2(COc3ccccc3C2=O)C1 (stereo not given) | > 100 | – | > 100 | > 100 | > 100 | > 100 | – | > 100 | > 100 | > 100 | – | – | – | – | – | –
3 | N/C(=N\N=C/c1c(O)cc(O)cc1O)NO | > 100 | > 100 | > 100 | > 100 | > 100 | 98.8 | > 100 | > 100 | – | > 100 | – | – | – | – | – | –
4 | CC1(C)Cc2ccccc2C(C)(Cl)C(=O)N1 (stereo not given) | > 10 | > 10 | > 10 | – | > 10 | – | > 10 | – | > 10 | > 10 | – | – | – | – | – | –
5 | Cc1cc(NS(=O)(=O)c2ccc(Nc3c4ccccc4nc4c(C(=O)NC(CO)(CO)CO)cccc34)cc2)no1 | – | > 100 | 63.9 | > 100 | > 100 | 55.1 | > 100 | > 100 | 61.7 | > 100 | – | – | – | – | – | –
6 | NCCCNCCSP(=O)(O)O | > 750 | > 657 | > 750 | > 750 | > 750 | > 750 | > 750 | > 750 | – | > 750 | – | – | – | – | – | –
7 | C/C(N=NS(=O)(=O)c1c(C)cc(C)cc1C)=C1\C=CC=CN1O | > 100 | – | > 100 | > 100 | > 100 | > 100 | > 100 | > 100 | > 100 | > 100 | – | – | – | – | – | –
8 | COc1ccc(-c2c(/C=N/OCC(=O)O)c3sc4ccccc4n3c2/C=N/OCC(=O)O)cc1 | > 50 | > 50 | – | > 50 | > 50 | > 50 | > 50 | > 50 | > 50 | > 50 | – | – | – | – | – | –
9 | CSCCC(NC(=O)C(Cc1c[nH]c2ccccc12)NC(=O)CCNC(=O)OC(C)(C)C)C(=O)NC(CC(=O)O)C(=O)NC(Cc1ccccc1)C(N)=O (stereo not given) | – | > 50 | > 50 | > 50 | > 50 | > 50 | > 50 | > 50 | > 50 | > 50 | – | – | – | – | – | –
10 | C/C(=N\Nc1nc2cc(F)ccc2s1)c1ccccn1 | > 100 | – | > 100 | 5.37 | 50.1 | 4.68 | > 100 | 5.49 | – | 5.37 | – | – | – | – | – | –
11 | COc1ccc(Cn2c(=O)c(OS(=O)(=O)C(F)(F)F)c(C)c3cc4ccccc4cc32)cc1 | > 100 | > 100 | – | > 100 | > 100 | > 100 | > 100 | > 100 | > 100 | > 100 | – | – | – | – | – | –
12 | COc1cccc(C2C(C#N)=C(N)Oc3cc(OCCCCCC[P+](c4ccccc4)(c4ccccc4)c4ccccc4)ccc32)c1 (stereo not given) | – | – | 0.659 | 3.26 | 3.15 | 2.11 | 1.69 | – | 2.99 | – | 0.194 | 1.41 | 1.35 | 0.21 | 1.46 | 0.477
13 | O=S1(=O)N=C(SCc2c[nH]c3ccccc23)N(c2ccccc2)c2ccncc21 | > 100 | > 100 | – | > 100 | > 100 | 87.7 | > 100 | > 100 | > 100 | > 100 | – | – | – | – | – | –
14 | CC1(C)CC(=O)C2=C(C1)NC(=S)C(C#N)C2c1ccccc1 (stereo not given) | > 100 | > 100 | – | > 100 | > 100 | > 100 | > 100 | > 100 | > 100 | > 100 | – | – | – | – | – | –
15 | C[C@H](NC(=O)C(C)(Cc1ccc(O)cn1)NC(=O)c1ccccc1)c1ccccc1 (stereo not given in full) | – | > 100 | > 100 | – | > 100 | – | > 100 | > 100 | > 100 | > 100 | – | – | – | – | – | –
16 | COC1OC(C)/C(=N/O)C2OC(C)(C)OC12 (stereo not given) | > 100 | > 100 | > 100 | > 100 | > 100 | – | > 100 | > 100 | > 100 | > 100 | – | – | – | – | – | –
17 | CCC1OC2(C)CC(C#N)(C#N)C1(C#N)C(=N)O2 (stereo not given) | – | > 100 | – | > 100 | > 100 | > 100 | > 100 | > 100 | > 100 | > 100 | – | – | – | – | – | –
18 | Cc1ccc(N=Nc2c(O)ccc3ccccc23)c(C)c1 | – | > 100 | > 100 | > 100 | > 100 | > 100 | > 100 | > 100 | > 100 | > 100 | – | – | – | – | – | –

Row | Compound | TGI (NCI-H460 lung) [µM] | TGI (COLO 205 colon) [µM] | TGI (RPMI-8226 leukemia) [µM] | TGI (SK-OV-3 ovarian) [µM] | TGI (OVCAR-5 ovarian) [µM] | TGI (SNB-75 CNS) [µM] | TGI (SK-MEL-28 melanoma) [µM] | TGI (SK-MEL-5 melanoma) [µM] | TGI (TK-10 renal) [µM] | TGI (SW-620 colon) [µM] | GI50 (RPMI-8226 leukemia) [µM] | GI50 (SK-OV-3 ovarian) [µM] | GI50 (OVCAR-5 ovarian) [µM] | GI50 (SNB-75 CNS) [µM] | GI50 (TK-10 renal) [µM] | GI50 (SK-MEL-28 melanoma) [µM]
19 | O=C(CCC(NC(=O)OCc1ccccc1)C(=O)OCc1ccccc1)Nc1cccc(OCc2ccccc2)c1 (stereo not given) | 53.3 | 31.9 | – | > 100 | > 100 | > 100 | > 100 | – | 90.3 | > 100 | – | – | – | – | – | –
20 | O=C(NNC(=O)c1ccc(Cl)cc1NC(=O)C12CC3CC(CC(C3)C1)C2)c1ccc(Cl)cc1 | 66.3 | 27.6 | 38.4 | 60.3 | 74.4 | – | – | 36.5 | 57.2 | > 100 | – | – | – | – | – | –
21 | CCOC(=O)c1c(SC(=O)c2ccc(Cl)cc2)n(-c2ccccc2)c(=S)n(-c2ccccc2)c1=O | > 100 | > 100 | – | > 100 | > 100 | > 100 | > 100 | – | > 100 | > 100 | – | – | – | – | – | –
22 | O=Cc1c2c(cc3c1CC1(C3)Cc3cc4c(c(C=O)c3C1)CCC4)CCC2 | – | 57.4 | > 100 | > 100 | > 100 | – | – | > 100 | 98.8 | – | – | – | – | – | – | –
23 | C[C@@H]([C@H]1CC[C@@]2(C)[C@@H]3CC[C@@H]4C(=CC3=CC[C@]12C)CC[C@H](N(C)C)C4(C)C)N(C)C | > 100 | > 100 | > 100 | > 100 | > 100 | – | > 100 | > 100 | > 100 | > 100 | – | – | – | – | – | –
24 | CSCSCC(CO)NC(=O)/C=C\c1c(C)[nH]c(=O)[nH]c1=O (stereo not given) | 109 | 78.9 | 239 | 74 | 277 | 118 | 219 | 105 | – | 207 | – | – | – | – | – | –
25 | Cc1cc2ccccc2oc(=O)/c1=N\Nc1ccccc1 | > 100 | > 100 | > 100 | 62.8 | > 100 | 63.8 | > 100 | > 100 | – | > 100 | – | – | – | – | – | –
26 | Nc1ccnc2c1ncn2[C@H]1C[C@H](O)[C@@H](CO)O1 | > 100 | > 100 | – | – | > 100 | > 100 | > 100 | > 100 | > 100 | > 100 | – | – | – | – | – | –
27 | Clc1cc(Cl)nc(Nc2ccc3c(c2)CCC3)n1 | > 100 | 46.9 | 42 | > 100 | > 100 | – | > 100 | 57.5 | > 100 | > 100 | – | – | – | – | – | –
28 | CC(C)(C)N=C1C(=O)C2(C)CCC1C2(C)C (stereo not given) | > 100 | > 100 | > 100 | > 100 | > 100 | – | > 100 | > 100 | > 100 | > 100 | – | – | – | – | – | –
29 | COc1ccc(-c2nc(-c3cnccn3)n(C/C=C/c3ccccc3)n2)cc1 | > 100 | > 100 | > 100 | > 100 | > 100 | 51.7 | > 100 | > 100 | – | > 100 | – | – | – | – | – | –
30 | CC(=O)OC1C2CCC3CC2C2(SCCS2)C31 (stereo not given) | > 100 | > 100 | > 100 | > 100 | > 100 | – | > 100 | > 100 | > 100 | > 100 | – | – | – | – | – | –
31 | COc1cc(/C=C2\N=C(c3ccccc3)N(c3cc4cc(Sc5ccccc5)ccc4[nH]3)C2=O)ccc1O | > 50 | > 50 | – | – | > 50 | > 50 | > 50 | > 50 | – | > 50 | – | – | – | – | – | –
32 | CN1COCN=C1NC#N | > 100 | > 100 | > 100 | > 100 | > 100 | > 100 | > 100 | – | – | > 100 | – | – | – | – | – | –
33 | CCOC(=O)c1cnc2n(c1=O)[C@H]1CCCC[C@@H]1N2 | > 100 | > 100 | > 100 | > 100 | > 100 | > 100 | > 100 | > 100 | – | > 100 | – | – | – | – | – | –
34 | C[C@@H]1C[C@@H]2OC(=O)[C@]3(C)[C@H]2[C@@H](OC3(C)O)[C@]2(C)C(=O)C=C[C@@H]12 (stereo not given in full) | – | 32 | 17.7 | > 100 | 41 | > 100 | 45 | 51.2 | > 100 | 51.9 | – | – | – | – | – | –
35 | C=C1C(=O)OC2C[C@@]3(C)CCCC(=C)C3CC12 (stereo not given in full) | 18.1 | 6.85 | – | 33.7 | 33.6 | 20.1 | 24 | 20.4 | 23.5 | 14.4 | – | – | – | – | – | –
36 | COc1c(NC(C)=O)c2ccccc2c2ccccc12 | > 100 | – | – | – | > 100 | – | > 100 | > 100 | > 100 | > 100 | – | – | – | – | – | –
